Test results taken from ChEMBL document CHEMBL3822439, “Discovery of a novel 6,7-disubstituted-4-(2-fluorophenoxy)quinolines bearing 1,2,3-triazole-4-carboxamide moiety as potent c-Met kinase inhibitors” (Eur J Med Chem, 2016).

Assays:
[1] = Cytotoxicity against human MKN45 cells measured after 72 hrs by MTT assay; type: functional, cell-based; conditions: MKN-45, 72 h
HT-29 [2] = assay: Cytotoxicity against human HT-29 cells measured after 72 hrs by MTT assay; conditions: HT-29, 72 h
[3] = Cytotoxicity against human H460 cells measured after 72 hrs by MTT assay; conditions: NCI-H460, 72 h
A549 [4] = assay: Cytotoxicity against human A549 cells measured after 72 hrs by MTT assay; type: functional, cell-based; conditions: A549, 72 h
[5] = Potency index, ratio of foretinib IC50 to compound IC50 for human H460 cells; type: functional
[6] = biological target: Mast/stem cell growth factor receptor Kit (Homo sapiens, UniProt P10721); assay: Inhibition of c-kit (unknown origin) using poly (Glu, Tyr) 4:1 as substrate incubated for 30 mins by HTRF assay
Sequence of Mast/stem cell growth factor receptor Kit (P10721 whole entry): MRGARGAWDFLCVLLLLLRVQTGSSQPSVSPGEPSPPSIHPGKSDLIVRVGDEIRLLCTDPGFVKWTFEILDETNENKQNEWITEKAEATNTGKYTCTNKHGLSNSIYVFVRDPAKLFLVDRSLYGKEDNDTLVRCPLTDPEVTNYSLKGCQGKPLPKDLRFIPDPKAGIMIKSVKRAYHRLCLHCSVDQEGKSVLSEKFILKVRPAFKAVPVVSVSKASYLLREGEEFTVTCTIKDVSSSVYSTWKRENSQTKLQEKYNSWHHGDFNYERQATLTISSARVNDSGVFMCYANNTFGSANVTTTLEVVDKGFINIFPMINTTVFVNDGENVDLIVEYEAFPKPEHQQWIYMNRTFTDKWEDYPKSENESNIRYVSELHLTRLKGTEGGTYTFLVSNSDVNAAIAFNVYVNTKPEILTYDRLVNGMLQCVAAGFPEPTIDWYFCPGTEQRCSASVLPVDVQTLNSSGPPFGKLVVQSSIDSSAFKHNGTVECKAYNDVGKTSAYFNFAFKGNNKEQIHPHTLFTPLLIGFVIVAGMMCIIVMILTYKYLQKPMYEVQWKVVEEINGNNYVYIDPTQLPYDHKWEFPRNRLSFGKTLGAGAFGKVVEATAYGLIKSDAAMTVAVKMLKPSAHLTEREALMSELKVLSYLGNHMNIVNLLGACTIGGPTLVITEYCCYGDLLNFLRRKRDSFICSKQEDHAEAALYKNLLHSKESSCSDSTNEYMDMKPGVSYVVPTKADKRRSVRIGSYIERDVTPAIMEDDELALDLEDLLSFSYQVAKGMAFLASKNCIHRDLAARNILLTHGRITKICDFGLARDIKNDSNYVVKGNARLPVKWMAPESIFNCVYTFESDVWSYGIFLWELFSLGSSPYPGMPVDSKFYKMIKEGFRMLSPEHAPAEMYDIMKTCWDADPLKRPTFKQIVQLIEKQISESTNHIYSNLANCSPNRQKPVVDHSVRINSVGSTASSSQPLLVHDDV

[7] = biological target: Epidermal growth factor receptor (Homo sapiens, UniProt P00533); assay: Inhibition of EGFR (unknown origin) using poly (Glu, Tyr) 4:1 as substrate incubated for 30 mins by HTRF assay
Sequence of Epidermal growth factor receptor (P00533 whole entry): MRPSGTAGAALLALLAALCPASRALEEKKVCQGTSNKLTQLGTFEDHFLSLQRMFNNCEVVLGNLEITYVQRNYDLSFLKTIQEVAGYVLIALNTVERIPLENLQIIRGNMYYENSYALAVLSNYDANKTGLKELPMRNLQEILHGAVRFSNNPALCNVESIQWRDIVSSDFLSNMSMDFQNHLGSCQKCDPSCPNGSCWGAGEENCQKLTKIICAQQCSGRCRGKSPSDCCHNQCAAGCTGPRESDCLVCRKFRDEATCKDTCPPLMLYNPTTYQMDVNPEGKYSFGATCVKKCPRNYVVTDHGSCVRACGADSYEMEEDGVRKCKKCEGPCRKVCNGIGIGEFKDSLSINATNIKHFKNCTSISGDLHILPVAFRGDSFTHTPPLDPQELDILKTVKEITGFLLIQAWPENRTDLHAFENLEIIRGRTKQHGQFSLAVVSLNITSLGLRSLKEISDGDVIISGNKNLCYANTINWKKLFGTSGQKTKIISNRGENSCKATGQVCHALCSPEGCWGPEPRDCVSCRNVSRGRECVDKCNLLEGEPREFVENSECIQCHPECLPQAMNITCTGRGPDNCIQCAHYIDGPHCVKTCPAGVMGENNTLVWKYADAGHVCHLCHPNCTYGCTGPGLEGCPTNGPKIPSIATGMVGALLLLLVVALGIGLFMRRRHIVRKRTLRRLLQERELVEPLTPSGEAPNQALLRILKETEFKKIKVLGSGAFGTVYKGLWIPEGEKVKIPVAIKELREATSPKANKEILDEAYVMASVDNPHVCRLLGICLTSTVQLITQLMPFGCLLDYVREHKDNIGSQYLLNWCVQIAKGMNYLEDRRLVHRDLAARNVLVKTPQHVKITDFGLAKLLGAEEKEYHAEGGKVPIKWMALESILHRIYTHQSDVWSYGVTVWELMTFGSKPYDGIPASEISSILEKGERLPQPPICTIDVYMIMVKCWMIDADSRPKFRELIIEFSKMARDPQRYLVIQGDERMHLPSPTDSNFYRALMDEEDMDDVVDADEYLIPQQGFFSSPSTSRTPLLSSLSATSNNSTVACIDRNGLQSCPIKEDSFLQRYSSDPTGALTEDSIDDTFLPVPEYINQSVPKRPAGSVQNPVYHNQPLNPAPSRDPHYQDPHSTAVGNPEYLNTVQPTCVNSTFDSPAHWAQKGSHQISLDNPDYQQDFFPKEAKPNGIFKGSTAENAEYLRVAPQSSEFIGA

[8] = biological target: Macrophage-stimulating protein receptor (Homo sapiens, UniProt Q04912); assay: Inhibition of Ron (unknown origin) using poly (Glu, Tyr) 4:1 as substrate incubated for 30 mins by HTRF assay
[9] = biological target: Vascular endothelial growth factor receptor 2 (Homo sapiens, UniProt P35968); assay: Inhibition of VEGFR2 (unknown origin) using poly (Glu, Tyr) 4:1 as substrate incubated for 30 mins by HTRF assay
Sequence of Vascular endothelial growth factor receptor 2 (P35968 whole entry): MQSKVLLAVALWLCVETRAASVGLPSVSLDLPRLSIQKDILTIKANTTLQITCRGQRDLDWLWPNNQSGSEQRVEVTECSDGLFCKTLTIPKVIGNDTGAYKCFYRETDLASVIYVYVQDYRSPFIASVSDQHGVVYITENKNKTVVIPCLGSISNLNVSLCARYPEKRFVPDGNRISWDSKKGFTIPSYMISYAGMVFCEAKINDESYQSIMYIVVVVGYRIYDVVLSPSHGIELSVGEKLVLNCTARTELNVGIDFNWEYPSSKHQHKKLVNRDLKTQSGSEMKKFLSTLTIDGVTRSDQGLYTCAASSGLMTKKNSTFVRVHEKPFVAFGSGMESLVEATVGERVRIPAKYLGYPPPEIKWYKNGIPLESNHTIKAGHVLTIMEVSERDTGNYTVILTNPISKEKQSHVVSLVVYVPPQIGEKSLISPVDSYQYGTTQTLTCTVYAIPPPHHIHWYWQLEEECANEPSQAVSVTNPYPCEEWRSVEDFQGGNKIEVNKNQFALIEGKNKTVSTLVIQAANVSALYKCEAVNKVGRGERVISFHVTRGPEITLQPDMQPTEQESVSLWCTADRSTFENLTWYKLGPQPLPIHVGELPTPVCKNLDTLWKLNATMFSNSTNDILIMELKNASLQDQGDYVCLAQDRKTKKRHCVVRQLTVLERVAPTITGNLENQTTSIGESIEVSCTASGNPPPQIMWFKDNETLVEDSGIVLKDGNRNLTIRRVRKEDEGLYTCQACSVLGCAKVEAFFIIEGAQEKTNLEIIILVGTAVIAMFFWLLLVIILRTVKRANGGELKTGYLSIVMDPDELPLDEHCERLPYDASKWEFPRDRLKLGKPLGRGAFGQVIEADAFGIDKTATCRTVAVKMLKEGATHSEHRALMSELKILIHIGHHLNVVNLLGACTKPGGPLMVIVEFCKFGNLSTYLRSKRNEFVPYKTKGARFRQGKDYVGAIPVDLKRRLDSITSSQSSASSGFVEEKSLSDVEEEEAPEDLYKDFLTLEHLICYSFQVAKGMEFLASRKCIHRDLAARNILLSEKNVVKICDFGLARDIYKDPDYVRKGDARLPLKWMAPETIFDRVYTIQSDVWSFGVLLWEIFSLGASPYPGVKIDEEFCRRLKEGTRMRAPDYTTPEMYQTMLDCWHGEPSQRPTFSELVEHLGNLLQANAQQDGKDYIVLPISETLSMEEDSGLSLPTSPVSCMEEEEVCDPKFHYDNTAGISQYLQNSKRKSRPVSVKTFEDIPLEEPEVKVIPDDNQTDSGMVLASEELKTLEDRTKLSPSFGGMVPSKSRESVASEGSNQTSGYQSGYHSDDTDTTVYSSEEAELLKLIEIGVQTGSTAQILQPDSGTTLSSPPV

A549 [10] = assay: Potency index, ratio of foretinib IC50 to compound IC50 for human A549 cells; type: functional
[11] = biological target: Hepatocyte growth factor receptor (Homo sapiens, UniProt P08581); assay: Inhibition of c-Met (unknown origin) using poly (Glu, Tyr) 4:1 as substrate incubated for 30 mins by HTRF assay
Sequence of Hepatocyte growth factor receptor (P08581 whole entry): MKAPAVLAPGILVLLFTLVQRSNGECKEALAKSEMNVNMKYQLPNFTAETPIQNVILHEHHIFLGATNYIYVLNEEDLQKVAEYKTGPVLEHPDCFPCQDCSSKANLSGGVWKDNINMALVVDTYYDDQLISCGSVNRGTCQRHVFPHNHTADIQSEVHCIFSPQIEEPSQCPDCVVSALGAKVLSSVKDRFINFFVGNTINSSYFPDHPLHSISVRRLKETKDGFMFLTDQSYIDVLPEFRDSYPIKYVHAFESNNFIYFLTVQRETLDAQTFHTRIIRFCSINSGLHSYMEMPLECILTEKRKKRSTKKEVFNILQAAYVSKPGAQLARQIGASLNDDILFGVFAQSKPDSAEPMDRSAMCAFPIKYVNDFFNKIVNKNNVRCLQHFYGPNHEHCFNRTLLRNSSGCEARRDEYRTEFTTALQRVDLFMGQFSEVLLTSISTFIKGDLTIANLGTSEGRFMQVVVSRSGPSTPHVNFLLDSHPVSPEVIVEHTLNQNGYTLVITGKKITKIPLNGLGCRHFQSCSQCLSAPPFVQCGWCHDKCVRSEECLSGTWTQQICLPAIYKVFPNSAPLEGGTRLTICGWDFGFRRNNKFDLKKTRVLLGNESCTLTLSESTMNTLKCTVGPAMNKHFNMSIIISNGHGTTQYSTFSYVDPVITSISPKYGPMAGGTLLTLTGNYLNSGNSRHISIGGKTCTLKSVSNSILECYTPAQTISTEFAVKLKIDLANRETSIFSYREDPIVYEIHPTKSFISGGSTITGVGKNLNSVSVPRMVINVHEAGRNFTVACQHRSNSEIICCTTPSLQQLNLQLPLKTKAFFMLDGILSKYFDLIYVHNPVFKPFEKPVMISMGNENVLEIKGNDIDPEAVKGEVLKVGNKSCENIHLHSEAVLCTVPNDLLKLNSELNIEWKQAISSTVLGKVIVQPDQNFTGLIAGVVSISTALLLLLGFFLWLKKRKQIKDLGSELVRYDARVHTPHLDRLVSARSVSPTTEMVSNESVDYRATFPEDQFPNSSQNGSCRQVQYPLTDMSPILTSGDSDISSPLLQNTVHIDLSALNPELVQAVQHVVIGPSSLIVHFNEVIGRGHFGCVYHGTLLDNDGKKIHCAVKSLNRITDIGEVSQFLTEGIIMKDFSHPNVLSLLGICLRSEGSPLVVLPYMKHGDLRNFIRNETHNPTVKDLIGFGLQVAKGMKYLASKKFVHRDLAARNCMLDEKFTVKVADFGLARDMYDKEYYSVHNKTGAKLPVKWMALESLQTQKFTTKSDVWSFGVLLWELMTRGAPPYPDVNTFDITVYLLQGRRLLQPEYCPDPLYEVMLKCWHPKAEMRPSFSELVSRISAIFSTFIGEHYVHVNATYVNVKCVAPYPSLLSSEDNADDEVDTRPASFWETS

[12] = biological target: T1, Receptor-type tyrosine-protein kinase FLT3 (Homo sapiens, UniProt P36888); assay: Inhibition of FLT3 (unknown origin) using poly (Glu, Tyr) 4:1 as substrate incubated for 30 mins by HTRF assay
T1 sequence (P36888 whole entry): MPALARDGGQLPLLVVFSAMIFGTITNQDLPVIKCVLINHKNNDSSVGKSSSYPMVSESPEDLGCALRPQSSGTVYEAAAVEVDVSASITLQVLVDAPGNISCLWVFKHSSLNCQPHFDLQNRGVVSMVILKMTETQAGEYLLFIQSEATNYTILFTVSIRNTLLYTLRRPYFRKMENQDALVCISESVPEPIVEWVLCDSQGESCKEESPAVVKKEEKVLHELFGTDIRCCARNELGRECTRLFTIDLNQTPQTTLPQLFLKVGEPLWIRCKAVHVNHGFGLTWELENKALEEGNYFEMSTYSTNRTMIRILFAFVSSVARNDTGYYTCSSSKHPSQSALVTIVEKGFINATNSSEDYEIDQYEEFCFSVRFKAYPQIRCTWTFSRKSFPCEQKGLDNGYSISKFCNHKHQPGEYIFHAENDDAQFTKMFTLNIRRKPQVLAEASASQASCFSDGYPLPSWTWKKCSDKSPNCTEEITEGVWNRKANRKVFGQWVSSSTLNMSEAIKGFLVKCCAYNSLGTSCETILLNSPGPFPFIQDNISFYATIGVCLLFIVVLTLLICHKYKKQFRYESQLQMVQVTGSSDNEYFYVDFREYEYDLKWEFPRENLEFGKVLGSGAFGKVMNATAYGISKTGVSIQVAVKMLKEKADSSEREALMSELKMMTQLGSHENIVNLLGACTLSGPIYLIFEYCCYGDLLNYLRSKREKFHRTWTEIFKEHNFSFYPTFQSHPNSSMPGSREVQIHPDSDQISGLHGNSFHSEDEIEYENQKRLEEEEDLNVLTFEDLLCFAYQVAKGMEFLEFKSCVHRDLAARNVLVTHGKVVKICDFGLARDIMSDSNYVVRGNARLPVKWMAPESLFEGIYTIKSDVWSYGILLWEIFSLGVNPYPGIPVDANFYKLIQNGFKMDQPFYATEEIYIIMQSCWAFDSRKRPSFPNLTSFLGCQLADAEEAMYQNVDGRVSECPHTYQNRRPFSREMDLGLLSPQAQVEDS

MKN-45 = assay: Potency index, ratio of foretinib IC50 to compound IC50 for human MKN45 cells; type: functional
HT-29 [13] = assay: Potency index, ratio of foretinib IC50 to compound IC50 for human HT-29 cells; type: functional

Row | Structure (SMILES) | IC50 [1] | IC50 (HT-29 [2]) | IC50 [3] | IC50 (A549 [4]) | further results
1 | COc1cc2c(Oc3ccc(NC(=O)c4cn(-c5ccccc5)nn4)cc3F)ccnc2cc1OCCCN1CCC(C)CC1 | 90 nM | 190 nM | 210 nM | 140 nM | 
2 | COc1cc2c(Oc3ccc(NC(=O)c4cn(-c5c(C)cccc5C)nn4)cc3F)ccnc2cc1OCCCN1CCCCC1 | 2140 nM | 3690 nM | 3520 nM |  | 
3 | COc1cc2c(Oc3ccc(NC(=O)c4cn(-c5ccccc5F)nn4)cc3F)ccnc2cc1OCCCN1CCN(C)CC1 | 140 nM | 300 nM | 230 nM | 250 nM | 
4 | COc1cc2c(Oc3ccc(NC(=O)c4cn(-c5ccccc5F)nn4)cc3F)ccnc2cc1OCCCN1CCC(C)CC1 | 130 nM | 210 nM | 190 nM | 250 nM | 
5 | COc1cc2c(Oc3ccc(NC(=O)c4cn(-c5ccc(F)c(F)c5)nn4)cc3F)ccnc2cc1OCCCN1CCN(C)CC1 | 160 nM | 430 nM | 250 nM | 200 nM | 
6 | COc1cc2c(Oc3ccc(NC(=O)c4cn(-c5c(C)cccc5C)nn4)cc3F)ccnc2cc1OCCCN1CCCC1 | 3490 nM | 2240 nM | 1560 nM | 1240 nM | 
7 | COc1cc2c(Oc3ccc(NC(=O)c4cn(-c5ccccc5Cl)nn4)cc3F)ccnc2cc1OCCCN1CCOCC1 | 270 nM | 240 nM | 210 nM | 530 nM | 
8 | COc1cc2c(Oc3ccc(NC(=O)c4cn(-c5c(Cl)cccc5Cl)nn4)cc3F)ccnc2cc1OCCCN1CCOCC1 | 110 nM | 270 nM | 290 nM |  | 
9 | COc1cc2c(Oc3ccc(NC(=O)c4cn(-c5c(C)cccc5C)nn4)cc3F)ccnc2cc1OCCCN1CCOCC1 |  | 6140 nM | 4320 nM |  | 
10 | COc1cc2c(Oc3ccc(NC(=O)c4cn(-c5ccccc5)nn4)cc3F)ccnc2cc1OCCCN1CCOCC1 | 110 nM | 350 nM | 450 nM | 720 nM | 
11 | COc1cc2c(Oc3ccc(NC(=O)c4cn(-c5ccc(Br)cc5)nn4)cc3F)ccnc2cc1OCCCN1CCOCC1 | 90 nM | 260 nM | 130 nM | 180 nM | 
12 | COc1cc2c(Oc3ccc(NC(=O)c4cn(-c5ccccc5F)nn4)cc3F)ccnc2cc1OCCCN1CCCCC1 | 1290 nM | 290 nM | 210 nM | 2770 nM | 
13 | COc1cc2c(Oc3ccc(NC(=O)c4cn(-c5ccc(F)c(F)c5)nn4)cc3F)ccnc2cc1OCCCN1CCCCC1 | 310 nM | 210 nM | 250 nM | 220 nM | 
14 | COc1cc2c(Oc3ccc(NC(=O)c4cn(-c5ccccc5C)nn4)cc3F)ccnc2cc1OCCCN1CCC(C)CC1 |  | 2380 nM | 2730 nM | 3500 nM | 
15 | COc1cc2c(Oc3ccc(NC(=O)c4cn(-c5ccccc5C)nn4)cc3F)ccnc2cc1OCCCN1CCCC1 |  | 1200 nM | 1260 nM | 900 nM | 
16 | COc1cc2c(Oc3ccc(NC(=O)c4cn(-c5c(C)cccc5C)nn4)cc3F)ccnc2cc1OCCCN1CCC(C)CC1 | 4310 nM | 2450 nM | 2360 nM | 3340 nM | 

Row | Structure (SMILES) | IC50 [1] | IC50 (HT-29 [2]) | IC50 [3] | IC50 (A549 [4]) | further results
17 | COc1cc2c(Oc3ccc(NC(=O)c4cn(-c5ccccc5)nn4)cc3F)ccnc2cc1OCCCN1CCN(C)CC1 | 60 nM | 180 nM | 200 nM | 160 nM | 
18 | COc1cc2c(Oc3ccc(NC(=O)c4cn(-c5ccc(Br)cc5)nn4)cc3F)ccnc2cc1OCCCN1CCCC1 | 120 nM | 190 nM | 200 nM | 370 nM | 
19 | COc1cc2c(Oc3ccc(NC(=O)c4cn(-c5ccccc5Cl)nn4)cc3F)ccnc2cc1OCCCN1CCCCC1 | 30 nM | 100 nM | 180 nM | 70 nM | Ratio IC50 [5]: 1.2; IC50 [6]: 9.36 nM; IC50 [7]: 529 nM; IC50 [8]: 346 nM; IC50 [9]: 96.7 nM; Ratio IC50 (A549 [10]): 1.6; IC50 [11]: 2.27 nM; IC50 [12]: 8.91 nM; Ratio IC50 (MKN-45): 1.1; Ratio IC50 (HT-29 [13]): 1.9
20 | COc1cc2c(Oc3ccc(NC(=O)c4cn(-c5ccccc5Cl)nn4)cc3F)ccnc2cc1OCCCN1CCN(C)CC1 | 70 nM | 160 nM | 290 nM | 150 nM | 
21 | COc1cc2c(Oc3ccc(NC(=O)c4cn(-c5ccccc5C)nn4)cc3F)ccnc2cc1OCCCN1CCN(C)CC1 |  | 1430 nM | 3650 nM | 3100 nM | 
22 | COc1cc2c(Oc3ccc(NC(=O)c4cn(-c5ccccc5Cl)nn4)cc3F)ccnc2cc1OCCCN1CCC(C)CC1 | 240 nM | 130 nM | 230 nM | 370 nM | 
23 | COc1cc2c(Oc3ccc(NC(=O)c4cn(-c5ccc(F)c(F)c5)nn4)cc3F)ccnc2cc1OCCCN1CCC(C)CC1 | 1290 nM | 810 nM | 260 nM | 1460 nM | 
24 | COc1cc2c(Oc3ccc(NC(=O)c4cn(-c5ccccc5)nn4)cc3F)ccnc2cc1OCCCN1CCCCC1 | 100 nM | 180 nM | 210 nM | 130 nM | 
25 | COc1cc2c(Oc3ccc(NC(=O)c4cn(-c5ccccc5Cl)nn4)cc3F)ccnc2cc1OCCCN1CCCC1 | 70 nM | 150 nM | 190 nM | 330 nM | 
26 | COc1cc2c(Oc3ccc(NC(=O)c4cn(-c5c(Cl)cccc5Cl)nn4)cc3F)ccnc2cc1OCCCN1CCCCC1 |  | 240 nM | 280 nM | 150 nM | 
27 | COc1cc2c(Oc3ccc(NC(=O)c4cn(-c5ccccc5C)nn4)cc3F)ccnc2cc1OCCCN1CCCCC1 | 3250 nM | 1340 nM | 2100 nM | 3230 nM | 
28 | COc1cc2c(Oc3ccc(NC(=O)c4cn(-c5c(Cl)cccc5Cl)nn4)cc3F)ccnc2cc1OCCCN1CCC(C)CC1 | 120 nM | 1390 nM | 270 nM | 320 nM | 
29 | COc1cc2c(Oc3ccc(NC(=O)c4cn(-c5ccc(Br)cc5)nn4)cc3F)ccnc2cc1OCCCN1CCCCC1 | 150 nM | 260 nM | 360 nM | 230 nM | 
30 | COc1cc2c(Oc3ccc(NC(=O)c4cn(-c5ccccc5)nn4)cc3F)ccnc2cc1OCCCN1CCCC1 | 260 nM | 180 nM | 280 nM | 360 nM | 
31 | COc1cc2c(Oc3ccc(NC(=O)c4cn(-c5c(C)cccc5C)nn4)cc3F)ccnc2cc1OCCCN1CCN(C)CC1 |  | 2170 nM | 4540 nM | 2180 nM | 
